# From patent US4857546A, “Novel HMG-CoA reductase inhibitors” (Merck & Co., Inc., priority 1988, dated 1989)
# Molecular target: T1, HMG-CoA reductase (Rattus norvegicus, UniProt P51639)
# T1 sequence (P51639 1-887): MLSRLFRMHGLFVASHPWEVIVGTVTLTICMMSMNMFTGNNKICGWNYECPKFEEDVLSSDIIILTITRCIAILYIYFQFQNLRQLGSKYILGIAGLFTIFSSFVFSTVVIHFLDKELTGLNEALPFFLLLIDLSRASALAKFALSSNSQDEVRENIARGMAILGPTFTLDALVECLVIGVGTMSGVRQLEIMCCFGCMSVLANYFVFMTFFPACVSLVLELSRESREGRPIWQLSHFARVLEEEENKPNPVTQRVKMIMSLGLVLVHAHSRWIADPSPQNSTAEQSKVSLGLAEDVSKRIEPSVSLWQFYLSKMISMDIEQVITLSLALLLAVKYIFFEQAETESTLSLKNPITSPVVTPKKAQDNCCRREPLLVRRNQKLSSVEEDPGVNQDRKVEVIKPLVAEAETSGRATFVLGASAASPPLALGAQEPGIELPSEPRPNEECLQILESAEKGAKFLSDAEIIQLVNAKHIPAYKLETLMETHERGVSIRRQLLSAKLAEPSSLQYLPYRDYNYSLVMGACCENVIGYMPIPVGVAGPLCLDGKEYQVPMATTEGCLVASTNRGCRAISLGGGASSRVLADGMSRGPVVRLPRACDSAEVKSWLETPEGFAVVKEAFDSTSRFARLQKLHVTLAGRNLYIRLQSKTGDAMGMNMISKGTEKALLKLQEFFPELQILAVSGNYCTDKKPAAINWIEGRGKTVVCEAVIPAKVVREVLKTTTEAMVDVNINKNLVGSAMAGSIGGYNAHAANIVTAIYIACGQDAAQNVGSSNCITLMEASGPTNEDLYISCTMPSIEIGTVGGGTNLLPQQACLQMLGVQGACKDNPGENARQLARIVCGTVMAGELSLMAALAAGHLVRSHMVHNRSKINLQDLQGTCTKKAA
# Assay: intrinsic HMG-CoA reductase inhibition, in vitro protocol of J. Med. Chem. 28, 347-358 (1985)
# Format: biochemical
# Details: IC50 of test compound compared with that of compactin (mevastatin) determined simultaneously; compactin assigned 100
# Experimental: The intrinsic HMG-CoA reductase inhibition activity of the claimed compounds is measured in the in vitro protocol published in J. Med. Chem. 28, p. 347-358 (1985).
# For estimation of relative inhibitory potencies, mevastatin (compactin) was assigned a value of 100 and the IC50 value of the test compound was compared with that of compactin determined simultaneously in the published in vitro protocol.
row,Structure (SMILES),Relative Potency
1,CCC(C)(C)C(=O)O[C@H]1C[C@H](CN)C=C2C=C[C@H](C)[C@H](CC[C@@H](O)C[C@@H](O)CC(=O)O)[C@H]21 [Example 1],125
2,"CCC(C)(C)C(=O)O[C@H]1C[C@H](CNCc2ccccc2)C=C2C=C[C@H](C)[C@H](CC[C@@H]3C[C@@H](O)CC(=O)O3)[C@H]21 [Example 2, 6(R)-[2-[8(S)-(2,2-dimethylbutyryloxy)-2(S)-methyl-6(S)-benzylaminomethyl-1,2,6,7,8, 8a(R)-hexahydronaphthyl-1(S)]ethyl]-4(R)-hydroxy-3,4,5,6-tetrahydro-2H-pyran-2-one]",167
3,"CCC(C)(C)C(=O)O[C@H]1C[C@H](CNC(=O)c2ccccc2)C=C2C=C[C@H](C)[C@H](CC[C@@H]3C[C@@H](O)CC(=O)O3)[C@H]21 [Example 3, 6(R)-[2-[8(S)-(2,2-dimethylbutyryloxy)-2(S)-methyl-6(S)-phenylcarbonylaminomethyl-1,2,6,7,8,8a(R)-hexahydronaphthyl-1(S)]ethyl]-4(R)-hydroxy-3,4,5,6-tetrahydro-2H-pyran-2-one]",300

# Second part, the compound after the results:
row,Relative Potency,Structure (SMILES)
1,294,"CCC(C)(C)C(=O)O[C@H]1C[C@H](CNC(=O)Nc2ccccc2)C=C2C=C[C@H](C)[C@H](CC[C@@H]3C[C@@H](O)CC(=O)O3)[C@H]21 [Example 4, 6(R)-[2-[8(S)-(2,2-dimethylbutyryloxy)-2(S)-methyl-6(S)-phenylureidomethyl-1,2,6,7,8,8a(R)-hexahydronaphthyl-1(S)]ethyl]-4(R)-hydroxy-3,4,5,6-tetrahydro-2H-pyran-2-one]"
2,500,"CCC(C)(C)C(=O)O[C@H]1C[C@H](CNC(=O)NCc2ccccc2)C=C2C=C[C@H](C)[C@H](CC[C@@H]3C[C@@H](O)CC(=O)O3)[C@H]21 [Example 5, 6(R)-[2-[8(S)-(2,2-dimethylbutyryloxy)-2(S)-methyl-6(S)-benzylureidomethyl-1,2,6,7,8,8a(R)-hexahydronaphthyl-1(S)]ethyl]-4(R)-hydroxy-3,4,5,6-tetrahydro-2H-pyran-2-one]"
